Experimental data reported in patent US20220273011A1, “GINGEROL COMPOUNDS AND THEIR USE AS FLAVOR MODIFIERS” (Firmenich SA, priority 2019, published 2022).

What was measured:
Format in all cases: in vivo
[1] = tested on: salty taste and/or umami taste; assay: Sensory tests in basic beef noodle seasoning; conditions: 10 ppm in salt water, in comparison to 0.3% salt; FIG. 8
Method: [6]-gingerdiol, [8]-gingerdiol, and [10]-gingerdioldiacetate were tested to evaluate their abilities to enhance salty taste and/or umami taste in basic beef noodle seasoning (GVA-003129, no salt, no MSG; salt (−25%) 0.525% RTC, MSG 0.25% RTC; Corned Beef 589879 CB at 0.2% RTC).
The sensory tests were evaluated for salt intensity, umami intensity, bitter intensity and liking intensity. The experiments were conducts in four designs, i.e. salt at 0.3%, [6]-gingerdiol at 10 ppm in salt water, [8]-gingerdiol at 10 ppm in salt water, and [10]-gingerdioldiacetate at 10 ppm in salt water.

[2] = tested on: salty taste and/or umami taste; assay: Sensory tests in chicken bouillon; conditions: for taste description: 10 ppm in chicken bouillon (0.7% salt, 0.04% MSG)
Method: [10]-gingerdiol and [10]-gingerdioldiacetate were tested to evaluate their ability to enhance salty taste and/or umami taste in chicken bouillon (GVA-000589, 0.7% salt, 0.04% MSG, no pepper, with 0.08% Chicken Flexarome 880449 FBS42).
The sensory tests were evaluated for salt intensity, umami intensity, and liking intensity. The experiments were conducted in four designs, i.e. UNF (reference), Ericamide ((E)-3-(3,4-dimethoxyphenyl)-N-(4-methoxyphenethyl)acrylamide, FEMA 4877) at 10 ppm, [10]-gingerdiol at 10 ppm, and [10]-gingerdioldiacetate at 10 ppm.

[3] = tested on: salty taste and/or umami taste; assay: Sensory tests of the compounds of formula (I) and (III) in reference solutions (NaCl, MSG, KCl), with or without nose clip; conditions: for enhancing effect for a salty or umami taste: references: 0.25% NaCl, 0.05% MSG, 0.25% KCl solution, FIGS. 1-6
Method: Sensory tests of the compounds of the present application were conducted. The compounds of formula (I) and (III) of the present application were tasted in sensory tests for their ability to enhance salty taste and/or umami taste in food products. The sensory tests were evaluated in four characters as saltiness, umami taste, saltiness in the presence of potassium chloride, and potassium chloride taste. The food products were evaluated with or without these compounds relevant to references (as indicated “With NC-Ref”, or “Without NC-Ref” in figures). The reference for saltiness was a 0.25% NaCl solution, the reference for umami was a 0.05% MSG solution, and the salty/bitter reference was a 0.25% KCl solution. The data was analyzed for statistical significances (indicated as * in the figures), such as levels of significance or graph of differences between means.
FIGS. 1-6 show the results of sensory tests for enhancing salty taste and/or umami taste using the compounds of formula (I) and (III) of the present application.

Row | SMILES | bitter intensity [1] | liking intensity [1] | salt intensity [1] | umami intensity [1] | taste description [2] | enhancing effect for a salty or umami taste [3] | salt intensity ([2]; 10 ppm in chicken bouillon, vs UNF (reference), FIG. 9) | enhancing salty taste and/or umami taste in food products ([3]; FIG. 4)
1 | CCCCC[C@H](O)C[C@H](O)CCc1ccc(O)c(OC)c1 [[6]-gingerdiol] | less bitter intensities | higher liking intensities | comparable salt intensities | higher umami intensities | – | – | – | –
2 | COc1ccc(CCNC(=O)/C=C/c2ccc(OC)c(OC)c2)cc1 [Ericamide, (E)-3-(3,4-dimethoxyphenyl)-N-(4-methoxyphenethyl)acrylamide, reference compound] | – | – | – | – | chickeny, balanced, good mouthfeel and salty tastes | – | – | –
3 | CCCCCCCCC[C@H](O)C[C@H](O)CCc1ccc(O)c(OC)c1 [[10]-gingerdiol] | – | – | – | – | less round, more salty, more acidic, chickeny balanced, coriander leaf, good and quite clean tastes | enhancing effect for a salty or umami taste | unexpected effects in enhancing the salt intensity | –
4 | CCCCCCCCC[C@@H](C[C@@H](CCc1ccc(O)c(OC)c1)OC(C)=O)OC(C)=O [[10]-gingerdioldiacetate] | less bitter intensities | higher liking intensities | higher salt intensity | higher umami intensities | strange, salty, solvent note, fruity, and some off tastes | enhancing effect for a salty or umami taste | – | –
5 | CCCCCCC[C@@H](C[C@@H](CCc1ccc(O)c(OC)c1)OC(C)=O)OC(C)=O [[8]-gingerdioldiacetate] | – | – | – | – | – | enhancing effect for a salty or umami taste | – | unexpected and excellent results
6 | CCCCCCC[C@H](O)C[C@H](O)CCc1ccc(O)c(OC)c1 [[8]-gingerdiol] | less bitter intensities | higher liking intensities | comparable salt intensities | higher umami intensities | – | enhancing effect for a salty or umami taste | – | –
